Assay results published in patent US10752612B2, “PLK4 inhibitors” (LUDWIG INSTITUTE FOR CANCER RESEARCH LTD, priority 2015, dated 2020).

What was measured:
LRRK2 = target: T1, LRRK2 (Homo sapiens, UniProt Q5S007); assay: Radiometric kinase assay, off-target LRRK2; type: biochemical; settings: off-target from DiscoveRx kinome profiling
T1 construct: Reaction Biology (Malvern, Pa.), contract assay
Method: (§1) Aurora B and other radiometric kinase assays were performed by Reaction Biology (Malvern, Pa.). Kinome profiling of centrinone and centrinone-B was performed by DiscoveRx (San Diego, Calif.).

[1] = test system: full-length mouse Plk4-YFP; assay: Plk4 stabilization assay, Plk4-YFP DLD-1 cells; type: cell-based, human; settings: 25 nM or 100 nM, 24 hours
Method: Plk4 stabilization assay. Expression was induced in Plk4-YFP DLD-1 cells using 1 μg/ml doxycycline. At the same time, cells were treated with the indicated concentrations of compounds. Cells were incubated for 24 hours before harvesting for Western blotting (see below).
Western blotting. […] Cell extracts were stored at −80° C. until use.

[2] = test system: wild-type Plk4-GFP NIH/3T3 cells; assay: Centriole overduplication assay, NIH/3T3 overexpressing wild-type Plk4-GFP; type: cell-based, mouse
Method: For generation of Plk4-GFP inducible NIH/3T3 cells, a mouse Plk4 cDNA C-terminally fused to eGFP was cloned into the lentiviral vector pLVX-TRE3G (Clontech). The G95L point mutation was generated by Quikchange mutagenesis (Agilent Technologies). Plasmids were transfected into HEK-293T cells using the Lenti-X HTX packaging system (Clontech), following manufacturer's instructions. 48 hours after transfection, virus-containing culture supernatant was harvested and added to the growth medium of Tet-On 3G NIH/3T3 cells (Clontech)+8 μg/ml polybrene (EMD Millipore).
Centriole overduplication assay. Tet-On 3G NIH/3T3 cells (Clontech) stably transduced with GFP, Plk4-GFP or Plk4(G95L)-GFP were seeded onto coverslips in a 12-well plate at 30,000 cells/well. Transgene expression was induced with 1 μg/ml doxycycline. […] Treated cells were incubated for 40 hours, and then washed with PBS and fixed in 100% methanol (−20° C., 5 minutes). Fixed samples were stained for γ-tubulin and Cep192, and mounted onto slides. Image acquisition and deconvolution were performed on the DeltaVision system equipped with a 100×1.3 NA U-PlanApo objective. Subsequent image processing was performed in ImageJ.

HeLa cells = assay: Proliferation assay, HeLa; type: cell-based, human
Method: (§2) Proliferation assays. For each condition, cells were seeded in triplicate into 6-well plates at 50,000 cells/well. Compounds were added at the indicated concentrations. At 24-hour intervals, 3 wells were harvested per condition. Cell counting was performed using a TC10 automated cell counter (Bio-Rad). Results are from 3 independent experiments.

TNK1 = target: T2, TNK1 (Homo sapiens, UniProt Q13470); assay: Radiometric kinase assay, off-target TNK1; type: biochemical; settings: off-target from DiscoveRx kinome profiling
T2 construct: Reaction Biology (Malvern, Pa.), contract assay
T2 sequence (Q13470 1-666): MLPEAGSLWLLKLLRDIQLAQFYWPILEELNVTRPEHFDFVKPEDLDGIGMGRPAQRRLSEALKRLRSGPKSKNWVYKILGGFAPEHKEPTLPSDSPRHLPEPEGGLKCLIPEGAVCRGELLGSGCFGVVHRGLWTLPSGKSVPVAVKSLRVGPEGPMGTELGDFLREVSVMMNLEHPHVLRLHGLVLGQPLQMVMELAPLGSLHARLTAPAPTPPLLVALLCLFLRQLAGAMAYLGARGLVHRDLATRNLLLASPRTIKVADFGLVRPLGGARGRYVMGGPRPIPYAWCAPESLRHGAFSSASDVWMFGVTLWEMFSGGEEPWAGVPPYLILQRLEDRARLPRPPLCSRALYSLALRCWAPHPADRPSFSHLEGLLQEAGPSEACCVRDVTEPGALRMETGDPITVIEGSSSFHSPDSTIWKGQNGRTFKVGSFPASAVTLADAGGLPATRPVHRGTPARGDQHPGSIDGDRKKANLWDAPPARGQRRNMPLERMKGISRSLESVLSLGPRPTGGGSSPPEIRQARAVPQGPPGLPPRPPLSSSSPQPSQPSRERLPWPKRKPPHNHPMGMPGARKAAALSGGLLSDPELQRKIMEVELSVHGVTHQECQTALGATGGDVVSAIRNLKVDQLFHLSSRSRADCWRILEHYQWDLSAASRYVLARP
Method: as §1

Plk4 = Plk4 intensity at centrosomes, HeLa; type: cell-based, human; settings: 125 nM, 8 hours
Description: FIGS. 13A-13D. Centriole number set points arise from a dynamic equilibrium between centriole overduplication and removal of cells with extra centrioles. […] Yellow arrowheads mark centrin foci. Each frame was acquired at NEBD when the centrosomes are optimally distributed for counting. Times in the bottom left of each panel are in minutes relative to NEBD in the mother cell. Scale bar, 10 μm. (FIG. 13B) Histogram of mitotic outcomes for HeLa cells with <2, 2 or >2 centrosomes. The fates of daughter cells arising from 2-centrosome bipolar mitosis, multi-centrosome bipolar mitosis, and multi-centrosome multipolar mitosis are shown below. Data are mean+/−SD (N=2). […] Intervals are based on the time of NEBD in the mother cells. The diagonal line represents the 2:1 ratio expected under normal conditions; points above or below this line correspond to over- or under-duplication, respectively. […] Boxed regions are magnified 2.3× in panels below. Scale bar, […]. The Plk4 intensity at centrosomes was quantified and normalized to the intensity in untreated cells. Data are mean+/−SD (N=3).

ROS/ROS1 = ROS/ROS1 (Homo sapiens, UniProt P08922); assay: Radiometric kinase assay, off-target ROS/ROS1; type: biochemical; settings: off-target from DiscoveRx kinome profiling
Method: as §1

NIH/3T3 cells [3] = assay: Proliferation assay, NIH/3T3; type: cell-based, mouse
Method: as §2

NIH/3T3 cells [4] = assay: Microtubule regrowth assay, NIH/3T3; type: cell-based, mouse; settings: NIH/3T3, 5 minutes after washout
Method: Microtubule regrowth assay. […] Cells were seeded onto coverslips in 12-well plates and treated with 16 μM nocodazole for 4 hours to depolymerize microtubules. Wells were washed 6 times with PBS to remove the nocodazole, and fresh, pre-warmed medium was added to each well. After 5 minutes of recovery, cells were fixed with 100% methanol (−20° C., 5 minutes) and stained with antibodies against γ-tubulin and α-tubulin. Coverslips were mounted onto slides and imaged on a DeltaVision microscope (Applied Precision) with a 60×1.42 NA PlanApo objective and CoolSnap camera (Photometrics). Image deconvolution was performed in softWoRx (Applied Precision) and subsequent processing was performed in ImageJ (NIH).

SRPK1 = target: T3, SRPK1 (Homo sapiens, UniProt Q96SB4); assay: Radiometric kinase assay, off-target SRPK1; type: biochemical; settings: off-target from DiscoveRx kinome profiling
T3 construct: Reaction Biology (Malvern, Pa.), contract assay
Method: as §1

T3 sequence (Q96SB4 whole entry): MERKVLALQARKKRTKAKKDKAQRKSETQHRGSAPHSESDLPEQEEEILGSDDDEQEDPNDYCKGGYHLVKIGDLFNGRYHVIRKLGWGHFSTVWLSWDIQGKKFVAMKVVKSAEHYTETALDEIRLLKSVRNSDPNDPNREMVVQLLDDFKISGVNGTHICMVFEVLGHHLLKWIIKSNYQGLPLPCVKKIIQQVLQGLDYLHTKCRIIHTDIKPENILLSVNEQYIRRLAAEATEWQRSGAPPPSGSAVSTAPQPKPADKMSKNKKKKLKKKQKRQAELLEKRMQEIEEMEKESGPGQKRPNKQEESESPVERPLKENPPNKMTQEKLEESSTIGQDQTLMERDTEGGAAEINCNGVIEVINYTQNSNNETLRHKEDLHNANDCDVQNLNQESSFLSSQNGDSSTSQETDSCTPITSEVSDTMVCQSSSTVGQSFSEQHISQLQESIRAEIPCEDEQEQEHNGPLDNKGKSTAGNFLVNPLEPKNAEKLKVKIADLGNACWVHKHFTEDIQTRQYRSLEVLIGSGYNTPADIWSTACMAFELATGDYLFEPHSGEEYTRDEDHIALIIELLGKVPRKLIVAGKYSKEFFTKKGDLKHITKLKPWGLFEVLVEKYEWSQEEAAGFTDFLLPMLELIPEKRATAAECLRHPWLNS
T1 sequence (Q5S007 whole entry): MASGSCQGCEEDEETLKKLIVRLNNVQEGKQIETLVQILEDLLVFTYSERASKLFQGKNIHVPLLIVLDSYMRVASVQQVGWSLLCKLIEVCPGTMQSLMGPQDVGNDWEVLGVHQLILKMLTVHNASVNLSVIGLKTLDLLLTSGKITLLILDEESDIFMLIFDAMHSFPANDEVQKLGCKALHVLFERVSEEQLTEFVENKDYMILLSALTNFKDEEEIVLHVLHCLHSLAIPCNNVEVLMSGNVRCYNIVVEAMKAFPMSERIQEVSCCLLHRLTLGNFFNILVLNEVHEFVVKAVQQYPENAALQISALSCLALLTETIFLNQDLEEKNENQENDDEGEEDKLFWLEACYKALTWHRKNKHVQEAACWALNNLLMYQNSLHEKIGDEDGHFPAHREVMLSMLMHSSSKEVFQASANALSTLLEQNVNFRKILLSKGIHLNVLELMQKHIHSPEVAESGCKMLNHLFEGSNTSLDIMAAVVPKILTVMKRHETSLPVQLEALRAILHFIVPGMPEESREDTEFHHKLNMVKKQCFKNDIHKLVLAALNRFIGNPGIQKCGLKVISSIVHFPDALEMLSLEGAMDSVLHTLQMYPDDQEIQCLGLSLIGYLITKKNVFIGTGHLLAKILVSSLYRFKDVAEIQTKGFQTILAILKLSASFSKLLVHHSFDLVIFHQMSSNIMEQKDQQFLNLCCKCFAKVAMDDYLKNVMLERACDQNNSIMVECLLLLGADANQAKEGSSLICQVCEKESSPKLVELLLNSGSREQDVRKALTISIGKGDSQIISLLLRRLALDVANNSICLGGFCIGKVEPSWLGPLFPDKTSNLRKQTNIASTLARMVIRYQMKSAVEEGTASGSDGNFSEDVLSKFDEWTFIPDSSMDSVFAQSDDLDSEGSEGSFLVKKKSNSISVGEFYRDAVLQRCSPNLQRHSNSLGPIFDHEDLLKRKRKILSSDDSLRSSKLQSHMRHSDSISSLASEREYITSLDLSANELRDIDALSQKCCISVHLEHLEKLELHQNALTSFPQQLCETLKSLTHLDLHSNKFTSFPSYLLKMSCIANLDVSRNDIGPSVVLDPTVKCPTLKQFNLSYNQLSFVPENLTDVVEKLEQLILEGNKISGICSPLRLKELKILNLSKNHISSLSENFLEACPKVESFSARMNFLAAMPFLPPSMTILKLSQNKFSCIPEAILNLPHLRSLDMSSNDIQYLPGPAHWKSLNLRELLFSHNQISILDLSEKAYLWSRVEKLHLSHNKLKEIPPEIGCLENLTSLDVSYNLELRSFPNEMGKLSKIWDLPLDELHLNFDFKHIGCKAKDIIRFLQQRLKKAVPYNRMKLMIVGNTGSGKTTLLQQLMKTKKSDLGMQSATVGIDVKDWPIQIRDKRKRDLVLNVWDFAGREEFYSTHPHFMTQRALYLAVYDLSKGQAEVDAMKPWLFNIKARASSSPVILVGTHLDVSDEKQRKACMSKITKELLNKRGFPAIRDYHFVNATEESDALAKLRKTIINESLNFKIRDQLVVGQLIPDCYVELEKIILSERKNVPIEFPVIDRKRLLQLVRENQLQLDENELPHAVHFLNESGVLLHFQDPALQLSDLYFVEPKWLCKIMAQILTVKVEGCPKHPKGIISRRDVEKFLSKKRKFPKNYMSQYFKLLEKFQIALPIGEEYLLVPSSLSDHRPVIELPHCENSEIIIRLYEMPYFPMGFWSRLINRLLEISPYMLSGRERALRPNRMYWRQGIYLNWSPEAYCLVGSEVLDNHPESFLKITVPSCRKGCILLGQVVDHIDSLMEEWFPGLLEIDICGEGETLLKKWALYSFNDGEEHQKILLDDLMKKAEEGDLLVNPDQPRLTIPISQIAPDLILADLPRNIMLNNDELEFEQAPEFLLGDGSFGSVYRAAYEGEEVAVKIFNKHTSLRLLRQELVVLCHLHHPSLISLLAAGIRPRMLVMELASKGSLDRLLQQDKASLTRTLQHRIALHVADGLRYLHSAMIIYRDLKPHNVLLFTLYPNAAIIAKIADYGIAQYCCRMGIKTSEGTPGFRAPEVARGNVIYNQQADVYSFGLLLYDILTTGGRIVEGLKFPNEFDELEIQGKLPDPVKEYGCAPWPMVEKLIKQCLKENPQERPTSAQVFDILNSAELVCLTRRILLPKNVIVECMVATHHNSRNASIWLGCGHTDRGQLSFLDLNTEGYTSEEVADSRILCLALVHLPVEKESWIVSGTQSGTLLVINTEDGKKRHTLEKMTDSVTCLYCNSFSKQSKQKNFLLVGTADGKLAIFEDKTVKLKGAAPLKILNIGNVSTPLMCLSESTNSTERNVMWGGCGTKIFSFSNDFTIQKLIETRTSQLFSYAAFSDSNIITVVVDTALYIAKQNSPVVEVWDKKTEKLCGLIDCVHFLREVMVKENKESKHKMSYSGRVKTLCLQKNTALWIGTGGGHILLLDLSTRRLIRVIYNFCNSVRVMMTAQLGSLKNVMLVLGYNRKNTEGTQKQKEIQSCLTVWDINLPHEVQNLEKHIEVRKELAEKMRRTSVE

In the case of `COc1c(Nc2cc(C)[nH]n2)nc(Sc2ccc(S(=O)(=O)Cc3cccc([N+](=O)[O-])c3F)cc2F)nc1N1CCOCC1` [Centrinone, 2-((2-fluoro-4-((2-fluoro-3-nitrobenzyl)sulfonyl)phenyl)thio)-5-methoxy-N-(5-methyl-1H-pyrazol-3-yl)-6-morpholinopyrimidin-4-amine], the Ki (LRRK2) is reported as 2.08 nM, the Plk4-YFP stabilization [1] is reported as “more substantial stabilization” and the centriole amplification [2] is reported as “blocked centriole amplification”. For the same compound, the proliferation versus controls (HeLa cells; HeLa, first two days after addition) was “identical to controls”, the “cell death per generation explaining reduced proliferation rate” value (HeLa cells; centrosome-less HeLa, theoretical curves versus measurements) was 25% and the Ki (TNK1) was 1.38 nM. For the same compound, the “Plk4 level at the centrosome” value (Plk4) was “double”, the Ki (ROS/ROS1) was 2.77 nM and the proliferation versus controls (NIH/3T3 cells [3]; NIH/3T3, first two days after addition) was “identical to controls”. For the same compound, the “cell death per generation explaining reduced proliferation rate” value (NIH/3T3 cells [3]; centrosome-less NIH/3T3, theoretical curves versus measurements) was 15%, the “microtubule organization after nocodazole washout” value (NIH/3T3 cells [4]) was “short microtubules form throughout the cytoplasm” and the Ki (SRPK1) was > 150 nM.
